Results from US20070178166A1, “PROCESSES FOR MAKING PARTICLE-BASED PHARMACEUTICAL FORMULATIONS FOR PULMONARY OR NASAL ADMINISTRATION” (priority 2005, published 2007).

Experiment: Dry powder particle sizing using a Malvern Mastersizer
Format: physicochemical
Description: The following materials were used in the examples: mannitol (Spectrum Chemicals, New Brunswick, N.J., unless otherwise indicated), TWEENTM 80 (Spectrum Chemicals, New Brunswick, N.J.), celecoxib (Onbio, Ontario, Canada), Plasdone-C 15 (International Specialty Products, Wayne, N.Y.), budesonide (Byron Chemical Company, Long Island, N.Y.), dipalmitoyl phosphatidylcholine (DPPC) (Chemi S.p.a., Milan, Italy, unless otherwise indicated), PLGA (Boehringer Ingelheim Fine Chemicals, Ingelheim, Germany), ammonium bicarbonate (Spectrum Chemicals, Gardenia, Calif.), methylene chloride (EM Science, Gibbstown, N.J.), Fluticasone propionate ([…]., Mumbai, India), and lactose (Pharmatose […], DMV International, The Netherlands). The TWEENTM 80 is hereinafter referred to as “Tween80.” The volume average diameter of lactose (Pharmatose […]) was determined to be approximately 68 μm by dry powder particle sizing using a Malvern Mastersizer (Malvern Instruments Ltd., United Kingdom).

volume average diameter: approximately 68 μm
SMILES: OC[C@H]1O[C@@H](O[C@H]2[C@H](O)[C@@H](O)C(O)O[C@@H]2CO)[C@H](O)[C@@H](O)[C@H]1O (stereo partly shown) [lactose (Pharmatose 325M), lactose]
